Experimental data from PubChem BioAssay (NCI).
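A five-concentration, 48-hour dose response in 96-well plates underlies each endpoint, interpolated linearly between surrounding concentrations. The concentration for 50% growth inhibition is given as GI50. TGI is the concentration that stops growth completely.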

Each molecule was assayed on U251 CNS (assay: NCI-60 cell line screen, 48 h).
`NC(N)=N/N=C/c1cc(Cl)cc(Cl)c1O` gave a TGI greater than 100 µM. `O=C(CSc1nnc(-c2ccccc2NC(=O)C(F)(F)F)c(=O)[nH]1)NC(=O)Nc1ccccc1` showed a TGI greater than 100 µM. For `N#CC1Nc2ccccc2[C@@H](O)C1O` (some centres not stated), the TGI was greater than 100 µM. `O=C1c2ccn(CCCCNC(CO)(CO)CO)c2C(=O)c2c1c(O)c1ccccc1c2O` was tested, and the GI50 was 1.95 µM and the TGI was 4.67 µM. In the case of `c1ccc2c3ccn4cc5c(cc4c-3nc2c1)CCCC5`, the GI50 is reported as 3.22 µM and the TGI is reported as 13.6 µM. With `CCOC(=O)c1[nH]c(COC(C)=O)c(CCCOC(C)=O)c1CCCOC(C)=O` the TGI was greater than 100 µM. `CCN1C(=O)N(CC)C2C1NC(=S)N2/N=C/C=C/c1cccs1` (configuration not stated) was tested, and the GI50 was 0.342 µM and the TGI was greater than 100 µM. Work on `COc1ccc(C(=O)C(CO)Oc2ccccc2OC)cc1OC` (configuration not stated) yielded a TGI greater than 100 µM.

What follows are molecules tested on MALME-3M melanoma (assay: NCI-60 cell line screen, 48 h).
`Nc1c(C(=O)N/N=C/c2ccc(-c3ccc(Cl)cc3)o2)cnn1-c1ccnc2c(C(F)(F)F)cccc12` was tested, and the GI50 was greater than 100 µM and the TGI was greater than 100 µM. `CCCCCc1c(C)[nH]c(/C=C2\N=C(c3ccc[nH]3)C=C2CC)c1C` was tested, and the GI50 was 0.0333 µM and the TGI was 0.187 µM. `CC(=O)Oc1ccccc1C(=O)N=C1[Se]CCN1C(=O)c1ccccc1OC(C)=O` showed a GI50 of 0.38 µM and a TGI of 1.45 µM. `CC(C)(C)C(=O)/C=C/c1ccc(Oc2ccccc2)cc1` showed a TGI of 44.6 µM. Work on `CC1=C(C(=O)Nc2c(C)cccc2C)C(c2ccccc2Cl)C(C(=O)Nc2c(C)cccc2C)=C(C)N1` yielded a TGI greater than 100 µM. `O=C1CSC(Cc2nc3ccccc3[nH]2)=N1` was tested, and the TGI was 18.4 µM. With `COc1ccccc1NC(=O)C1=C(C)NC(C)=C(C(=O)Nc2ccccc2OC)C1c1ccc([N+](=O)[O-])cc1` the TGI was greater than 100 µM. With `CCOC(=O)[C@H](CCCNC(=O)OC(C)(C)C)NCc1ccc(OC)c(OC)c1` the TGI was greater than 100 µM. Molecule `O=C(/C=C/c1c(O)ccc2ccccc12)c1ccc2ccccc2c1` has a TGI greater than 100 µM. `O=[N+]([O-])c1ccc(-n2nnc(C3=NCCCN3)c2-c2ccc(Cl)cc2)cc1` was tested, and the TGI was greater than 100 µM. In the case of `COC(=O)C12C3C4C5(C(=O)OC)C(C1C35C(=O)N(C(C)C)C(C)C)C42C(=O)N(C(C)C)C(C)C` (configuration not stated), the TGI is reported as greater than 50 µM. With `N#CC(C#N)=c1[nH]c2cccc3c2-c2c(cccc2c3=C(C#N)C#N)[nH]1` the TGI was greater than 100 µM. `C#C[C@]1(O)CC[C@H]2[C@@H]3CC=C4c5sc(Nc6ccccc6)nc5CC[C@]4(C)[C@H]3CC[C@@]21C` gave a GI50 of 1.31 µM and a TGI of 3.79 µM. `COC(=O)/C=C/C1C(C(=O)OC)C2(C(=O)OC)CCC1(C(=O)OC)N2` (configuration not stated) showed a TGI greater than 100 µM. For `CSC1(CC(=O)N(C)C)C(=O)Nc2ccccc21` (configuration not stated), the TGI was greater than 100 µM. `N#CC(/C(=N/NC(=O)C(=O)NN)C(=O)NC12CC3CC(CC(C3)C1)C2)c1ccccc1` (configuration not stated) was tested, and the TGI was greater than 100 µM. For `CC(=O)OCC1OC([S-])C(OC(C)=O)C(OC(C)=O)C1OC(C)=O.CC[PH+](CC)CC.CC[PH+](CC)CC.[Au].[Au]` (configuration not stated), the GI50 was 0.137 µM and the TGI was 0.32 µM. `COc1cc2c(cc1OCc1ccccc1)CNCC2` was tested, and the TGI was greater than 100 µM. Work on `O/N=C\c1c(O)ccc2ccccc12` yielded a TGI of 75.5 µM. `CCCCCCCCCc1cc(=O)c2c(O)cccc2o1` gave a TGI greater than 100 µM. Molecule `COc1cc2cn3c4ccc(O)cc4[nH]c(=O)c3c2cc1OC` has a GI50 of 0.0349 µM and a TGI of 2.06 µM. `O=C(C[n+]1ccccc1)NNC(=O)/C(=C/c1ccc2c(c1)OCO2)NC(=O)c1ccccc1` showed a TGI greater than 100 µM. For `O=S(O)CCCCSSCc1ccccc1CSSCCCCS(=O)O`, the TGI was 28.5 µM. `Clc1ccc(-c2c(C3=NCCN3)nnn2-c2ccc(Cl)cc2)cc1` was tested, and the TGI was 33.9 µM. In the case of `CC(C)(C)N1CC2(CCCCC2)C1=O`, the TGI is reported as greater than 100 µM. `O=C(CCC(=O)Nc1cccc(Cl)c1)CC(=O)c1ccc(Cl)cc1` showed a TGI greater than 100 µM. With `NC1CCCC[C@H]1N.N[C@@H]1CCCC[C@@H]1N.O=C(P(=O)([O-])[O-])P(=O)([O-])[O-].[Pt+4].[Pt+4]` the GI50 was greater than 100 µM and the TGI was greater than 100 µM. Molecule `NC(N)=N/N=C/c1cc(Cl)cc(Cl)c1O` has a TGI greater than 100 µM. In the case of `O=C(CSc1nnc(-c2ccccc2NC(=O)C(F)(F)F)c(=O)[nH]1)NC(=O)Nc1ccccc1`, the TGI is reported as greater than 100 µM. `N#CC1Nc2ccccc2[C@@H](O)C1O` (some centres not stated) was tested, and the TGI was greater than 100 µM. `CCOC(=O)c1[nH]c(COC(C)=O)c(CCCOC(C)=O)c1CCCOC(C)=O` was tested, and the TGI was greater than 100 µM. Work on `CCN1C(=O)N(CC)C2C1NC(=S)N2/N=C/C=C/c1cccs1` (configuration not stated) yielded a GI50 of 0.485 µM and a TGI greater than 100 µM. `COc1ccc(C(=O)C(CO)Oc2ccccc2OC)cc1OC` (configuration not stated) gave a TGI greater than 100 µM.
